What all share (assay type): cell-based
One test deals with THP1-Dual KO-TREX1 cells. Kind of test: THP1 TREX1 KO inhibition assay (type 1 interferon response). As to conditions: Homo sapiens, 144 h, type 1 interferon (QUANTI-LUC), 1 μM 5-aza-2′-deoxycytidine, six days. In a few lines: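 THP1-Dual KO-TREX1 cells were treated with a dose titration of compound, alone or with 1 μM 5-aza-2′-deoxycytidine, for six days at 37 °C. Type 1 interferon was read as secreted luciferase (QUANTI-LUC) in the supernatant, and viability by CellTiter-Glo luminescence.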

Test [1] can be described thus: Mitochondria toxicity assay with PC3 cells, in-cell ELISA COX-1. As to conditions: 5 days treatment. In a few lines:
(§1)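 This in-cell ELISA was run on fixed, permeabilized PC3 cells after 5-day exposure to titrated compound, with cytotoxicity measured on a duplicate plate. Results are reported as categories A (<1.0 μM) to E (>100.0 μM).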
In general terms: ELISA stands for enzyme-linked immunosorbent assay.

Test [2] has as its system SDH-A (succinate dehydrogenase-A). Description: Mitochondria toxicity assay with PC3 cells, in-cell ELISA SDH-A. As to conditions: 5 days treatment. In short, it runs like this: as §1
In another test the test system is PC3 cells. Kind of test: Mitochondria toxicity assay with PC3 cells, cytotoxicity (Cell Titer Glo). As to conditions: Homo sapiens, PC-3, 120 h, 5 days treatment. In short, it runs like this:
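PC3 cells in F-12K with 10% FBS exposed to a compound dose titration for 5 days at 37° C, 5% CO2. Viability by Cell Titer Glo luminescence after 30 min at room temperature; values binned A (<1.0 μM) to E (>100.0 μM).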
(In general: Cellular ATP, detected with luciferase, serves as a proxy for viable cell number.)

The test system of the next test is 7S mitochondria DNA. Description: Mitochondria DNA assay with PC3 cells. As to conditions: Homo sapiens, PC-3, 120 h, 5 days, 7S mitochondria DNA level by qPCR relative to 18S or GAPDH. As to the method: Exemplary compounds were tested for their effect on levels of 7S mitochondria DNA, and the DNA of housekeeping genes 18S and GAPDH. Reduction of 7S mitochondria DNA indicates off-target inhibition of mitochondrial DNA synthesis, which leads to mitochondrial toxicity. Assay procedures and results are described below.
PC3 cells were purchased from ATCC and cultured in F-12 Kaighn's modified medium (Hyclone), 10% heat-inactivated fetal bovine serum (Gibco), 1% Penicillin-Streptomycin (Invitrogen). PC3 cells were treated with a dose titration of a test compound on 6 well plates for 5 days at 37° C., 5% CO2 in a humidified incubator.
Cells were harvested and mitochondria DNA extraction was performed using DNeasy Blood & Tissue Kit (Qiagen) according to the manufacture's instruction.
Mitochondria 7S and housekeeping genes 18S and GAPDH DNA was quantified by multiplex qPCR with the PowerUp™ SYBR™ Green system (Applied Biosystems). Prepare reaction mix consisting of 5 μl of 2× PowerUp™ SYBR™ Green Master Mix, 1 μl of 5 μM Primers for 7S, 18S, or GAPDH, 4 μl of DNA template from DNA extraction above. The primer sequences are below:
qPCR was performed on QuantStudio™ 7 Flex RealTime qPCR system (Applied Biosystems) as set forth below: • a. 50° C. for 2 minutes, then • b. 95° C. for 2 minutes, then • c. 95° C. for 15 seconds, then • d. 60° C. for 60 seconds, • where then steps (c) and (d) were repeated 60 times.
Threshold was calculated by QuantStudio™ 7 Flex Software (ThermoFisher Scientific) using the default settings. Ct values were used to evaluate the relative mitochondria DNA (mtDNA) level using the following formula: ΔCt=Ct (7S target gene)−Ct (18S) or ΔCt=Ct (7S target gene)−Ct (GAPDH). Relative mtDNA level=2^−Δct. Expression fold over DMSO control=2^−Δct (compound treated group)/2^−Δct (DMSO group)
In the table “A” represents values≤0.1 μM; “B” represents values from >0.1 μM to ≤1.0 μM; “C” represents values from >1.0 μM to ≤10.0 μM; “D” represents values from >10.0 μM to ≤100.0 μM; and “E” represents values>100.0 μM.
On the technique in general: Real-time PCR tracks product formation cycle by cycle.

The test system of test [3] is phosphorylated TANK-binding kinase 1 (pTBK1). Description: UVB-induced pTBK1 in HaCaT cells. As to conditions: Homo sapiens, light or radiation study, pTBK1 response curves, 72 hours compound treatment, UVB. As to the method:
pTBK1 is an important signaling molecule in regulating inflammatory responses. HaCaT cells were plated in 6-well plates at a density of ˜100 k/well in HaCaT media (DMEM, optimized 1× (Addex Bio)+ 1% pen strep (Gibco)^+ 5% heat inactivated fetal bovine serum (Gibco)). The cells were then cultured at 37° C. overnight. The next day, the cells were treated with the test compounds. Each test compound was diluted and added to media aliquots to provide desired concentrations. To add the test compound+media mixture, an equivalent amount of media from each well was aspirated and then replenished with the media dosed with the test compound. The cells were then cultured for an additional 72 hours with compound treatment prior to UVB exposure.
The media was then aspirated from the wells, with the remaining cells at least 80% confluent in each well. One mL of PBS was then added to each well, and the plate was then placed under a UVB lamp. A UVB sensor was positioned near the plate to register the plate's exposure. The cells were exposed to the UVB light until they reached 0.1 mJ/cm2. Then the plate was covered and transferred to a sterile hood for processing.
The PBS was aspirated out of the wells, and the wells were replenished with 3 mL fresh culture media. The cells were then cultured for an additional 24 hours, and samples were processed 24 hours post-UVB exposure. To process the samples, the media was aspirated, the plate placed on ice, and the cells washed with cold PBS, which was then aspirated off. Another 1 mL of cold PBS was added to each well. The cells were then scraped in the cold PBS solution and transferred to conical tubes on ice. The cells were then spun at ≥1000 RCF at 4° C. for 5 minutes. The cells were then resuspended in 1 mL of cold PBS and transferred to a microcentrifuge tube. The cells were spun at ≥1000 RCF at 4° C. for another 5 minutes, and the PBS was aspirated off. The cell pellet was prepared for lysis.
A RIPA lysis buffer (#BP-115, Boston BioProducts) was added to a Halt protease and […] inhibitor cocktail (#78440, ThermoFisher), and the mixture was cooled on ice. About 30 μL of the lysis buffer mix was added to the cells. The samples were briefly vortexed and then incubated on ice for at least 15 minutes. The cells were then spun≥1000 RCF at 4° C. for 5 minutes and the supernatant was transferred to a clean tube. The protein concentration of the cell lysate was measured using Pierce™ Rapid Gold BCA Protein Assay Kit #AF3225 (ThermoFisher). ELISA analysis was run on select samples using one of the following kits: • a. FastScan™ Phospho-TBK1/NAK (Ser172) ELISA Kit #46948 (Cell Signaling Technologies) • b. FastScan™ Total TBK1/NAK ELISA Kit #15816 (Cell Signaling Technologies) • c. FastScan™ Phospho-STING (Ser366) ELISA Kit #82083 (Cell Signaling Technologies) • d. FastScan™ Phospho-IRF-3 (Ser396) ELISA Kit #50386 (Cell Signaling Technologies) • e. FastScan™ Total IRF-3 ELISA Kit #29771 (Cell Signaling Technologies) • f. Phospho-NAK/TBK1 (S172) ELISA Kit (ab279952) (Abcam) • g. Phospho-IRF3 (S386) ELISA Kit (ab279833) (Abcam) Part II—Results
In the table “A” represents values≤0.50 μM; “B” represents values from >0.50 μM to ≤2.0 μM; “C” represents values from >2.0 μM to ≤5.0 μM; “D” represents values from >5.0 μM to ≤10 μM; and “E” represents values>10 μM.

Our source for the IC50 values is US12187758B2 (ROME Therapeutics, Inc., priority 2022, dated 2025).

Consider `Nc1nc(=O)n([C@@H]2O[C@@](CO)(CBr)[C@@H](O)[C@@H]2F)cc1F` [Compound 86, 4-amino-1-[(2R,3S,4R,5R)-5-(bromomethyl)-3-fluoro-4-hydroxy-5-(hydroxymethyl)oxolan-2-yl]-5-fluoropyrimidin-2-one], for which the IC50 with THP1-Dual KO-TREX1 cells is more than 1 µM; in test [1] it was more than 100 µM; in test [2], more than 100 µM; in the test on PC3 cells it was more than 100 µM; in the test on 7S mitochondria DNA, more than 100 µM.
With `CC(C)C(=O)OC[C@@]1(CCl)O[C@@H](n2cc(F)c(N)nc2=O)[C@@H](F)[C@@H]1OC(=O)C(C)C` [Compound 173, (2R,3R,4S,5R)-5-(4-amino-5-fluoro-2-oxopyrimidin-1(2H)-yl)-2-(chloromethyl)-4-fluoro-2-((isobutyryloxy)methyl) tetrahydrofuran-3-yl isobutyrate], the IC50 in the test on THP1-Dual KO-TREX1 cells was more than 1 µM; in test [1] it was 50 to 100 µM; in test [2] it was more than 100 µM; in the test on PC3 cells it was more than 100 µM; in the test on 7S mitochondria DNA, more than 100 µM.
As for `CC[C@]1(CO)O[C@@H](n2cc(F)c(N)nc2=O)[C@@H](F)[C@@H]1O` [Compound 77, 4-amino-1-[(2R,3S,4R,5R)-5-ethyl-3-fluoro-4-hydroxy-5-(hydroxymethyl)oxolan-2-yl]-5-fluoropyrimidin-2-one], the IC50 was more than 1 µM in the test with THP1-Dual KO-TREX1 cells; more than 100 µM in test [1]; more than 100 µM in test [2]; more than 100 µM with PC3 cells; more than 100 µM in the test with 7S mitochondria DNA.
Regarding `CC(C)C(=O)OC[C@@]1(CCl)O[C@@H](n2ccc(N)nc2=O)[C@H](F)[C@@H]1OC(=O)C(C)C` [Compound 24, (2R,3R,4R,5R)-5-(4-amino-2-oxopyrimidin-1(2H)-yl)-2-(chloromethyl)-4-fluoro-2-((isobutyryloxy)methyl) tetrahydrofuran-3-yl isobutyrate], the IC50 in the test on THP1-Dual KO-TREX1 cells is more than 1 µM; in test [1], more than 100 µM; in test [2] it was more than 100 µM; in the test with PC3 cells it was more than 100 µM; in the test with 7S mitochondria DNA, more than 100 µM.
Regarding `C#C[C@]1(CO)O[C@@H](n2cc(F)c(N)nc2=O)[C@@H](O)[C@@H]1O` [Compound 116, 4-amino-1-((2R,3S,4S,5R)-5-ethynyl-3,4-dihydroxy-5-(hydroxymethyl)tetrahydrofuran-2-yl)-5-fluoropyrimidin-2(1H)-one], the IC50 with THP1-Dual KO-TREX1 cells is more than 1 µM; in test [1], more than 100 µM; in test [2], more than 100 µM; with PC3 cells, more than 100 µM; with 7S mitochondria DNA, more than 100 µM.
In the case of `Nc1ccn([C@@H]2O[C@@](CO)(CCl)[C@@H](O)[C@H]2F)c(=O)n1` [Compound 31, 4-amino-1-((2R,3R,4R,5R)-5-(chloromethyl)-3-fluoro-4-hydroxy-5-(hydroxymethyl)tetrahydrofuran-2-yl)pyrimidin-2(1H)-one], the IC50 in the test with THP1-Dual KO-TREX1 cells is more than 1 µM; in test [1] it was 10 to 50 µM; in test [2], 10 to 50 µM; in the test with PC3 cells, 10 to 50 µM; in the test with 7S mitochondria DNA, 0.1 to 1 µM.
As for `Nc1nc(=O)n([C@@H]2O[C@@](CO)(CCl)[C@@H](O)[C@@H]2O)cc1F` [Compound 73, 4-amino-1-((2R,3S,4S,5R)-5-(chloromethyl)-3,4-dihydroxy-5-(hydroxymethyl)tetrahydrofuran-2-yl)-5-fluoropyrimidin-2(1H)-one], the IC50 in the test with THP1-Dual KO-TREX1 cells is more than 1 µM; in test [1] it was more than 100 µM; in test [2], more than 100 µM; with PC3 cells it was more than 100 µM; with 7S mitochondria DNA it was more than 100 µM.
On to `Nc1ccn([C@H]2C[C@H](O)[C@](CO)(C(F)(F)F)O2)c(=O)n1` [Compound 21, 4-amino-1-((2R,4S,5R)-4-hydroxy-5-(hydroxymethyl)-5-(trifluoromethyl)tetrahydrofuran-2-yl)pyrimidin-2(1H)-one], for which the IC50 in test [3] was more than 10 µM; in test [1] it was more than 100 µM; in test [2], more than 100 µM; with PC3 cells it was more than 100 µM.
In the case of `[N-]=[N+]=N[C@]1(CO)O[C@@H](c2cc(I)c3c(N)ncnn23)C[C@@H]1O` [Compound 161, (2R,3S,5R)-5-(4-amino-5-iodopyrrolo[2,1-f][1,2,4]triazin-7-yl)-2-azido-2-(hydroxymethyl)tetrahydrofuran-3-ol], the IC50 in the test with THP1-Dual KO-TREX1 cells was 0.05 to 0.1 µM; in test [1], 1 to 10 µM; in test [2] it was 1 to 10 µM; with PC3 cells, 1 to 10 µM; with 7S mitochondria DNA, more than 100 µM.

The term IC50 denotes the concentration that inhibits the measured activity by half. Read a high IC50 as weaker potency in that assay.
